{"source": "patent US6054437A", "about": "“Method for inducing death of neoplastic cells using piperazine derivatives” (Hitachi Chemical Research Center, Inc., priority 1997, dated 2000)", "key": {"HS-578T (breast) [1]": {"system": "HS-578T (breast)", "assay": "Cancer cell death assay (LDH release), HS-578T", "type": "cell-based, human", "conditions": "HS-578T, 25 μM, 1,000 and 1,500 cells/well (FIGS. 34, 35)", "method": "(§1) 1. Cancer Cell Death Assay\n(§2) Cell death was measured quantitatively by the release of a marker intracellular enzyme, lactate dehydrogenase (LDH), from damaged or killed cells. LDH released into the extracellular fluid, was measured 24 hours after drug exposure to cancer cells and the enzyme activity was determined by the method of Decker et al. (J. Immunolog Methods 15:61-99, 1988).\nA series of analogs related to NCO-700 were assayed in the cancer cell death assay. […] It should be stressed that these analogs were tested alone, without any added chemotherapeutic agent.\nBased on Experiment 1 above, the anti-cancer activity of NCO-700, TOP-008, and analogs, TOP-201, 202, 203, 204, 205, 206, 207, and 007, was tested in cancer cell death assays of human cancer cell line HS-578T. In FIGS. 34 (1,000 cells/well) and 35 (1,500 cells/well), a bar graph indicates the activity of a particular analog as measured by the % LDH released (DMSO, dimethyl sulfoxide=control), with higher values of LDH released indicating greater anti-neoplastic activity. All analogs were tested at a concentration of 25 μM."}, "[2]": {"system": "human prostate cancer cells", "assay": "Subrenal capsule (SRC) tumor implant assay, prostate cancer", "type": "in vivo, human tumor in BDF/1 mice", "method": "FIG. 17 is a graph showing the relationship between the mean change in size of tumor (delta mean) and the dosage of NCO-700 in a sub-renal capsule assay of human prostate cancer in BDF/1 mice.\n3. In Vivo Model/Subrenal Capsule (SRC) Tumor Implant Assay\nA tumor implant model, where human tumors were implanted into the renal capsule of mice was performed. The tumors successfully escaped the immune system of the mouse and grew over a six-day period. The advantage of this assay is that the effect of chemotherapeutic agents can be tested in vivo. This model was developed at the University of California, Irvine by Stratton et al. (Gynecologic Oncology 17:185-188, 1984). Human tumors were implanted on day one and were exposed to drug on days two-six. The size of the implant was determined at time zero and at the end of five days of drug treatment, and the difference in size of the implanted tumor at day six, when compared to control animals not exposed to drug, is referred to herein as the delta mean.\nHuman cancer cells can be grown in the sub-renal capsule of mice, where for a limited period of time they escaped the detection of the mouse's immune system. This assay provides a convenient system to study the effect of drugs on the growth of tumor cells in vivo. As this is a much more time-consuming assay, and requires more drug than the in vitro assays, the effect of NCO-700 was tested on a single prostate cancer cell line. Three groups of animals (n=23 total) were tested with three concentrations of NCO-700 including, 10 mg/kg, 20 mg/kg and 40 mg/kg."}, "T-47D (breast)": {"system": "T-47D (breast)", "assay": "Cancer cell survival assay, T-47D", "type": "cell-based, human", "conditions": "seven days, alone", "method": "(§3) Cell survival was assayed in cultured tumor cells. From 500-1000 cells per well were plated in 24-welled culture dishes and exposed to drug for seven days. After drug exposure, a computerized cell imaging technique was utilized to ascertain the number of viable cells remaining in each culture. From the data, survival curves were plotted and a ED50 (drug concentration that permits 50% cell survival) were calculated.\n(§4) The cancer cell survival assay is an important additional in vitro assay to assess the anti-neoplastic activity of compounds as the cells are given a prolonged exposure (seven days) to the drug. FIGS. 9-16 show the effect of increasing the dose of NCO-700 on the survival of a number of cancer cell lines. […] In the figures, the vertical axis is the object area, which is the number of surviving cancer cells calculated by a computer."}, "HS-578T (breast) [3]": {"system": "HS-578T (breast)", "assay": "Cancer cell survival assay, HS-578T", "type": "cell-based, human", "conditions": "seven days, alone", "method": "as §3, §4"}, "KB-V-1 (resistant cells)": {"system": "KB-V-1 (resistant cells)", "assay": "Drug accumulation assay ([3H]-vinblastine), resistant cells", "type": "cell-based, human", "conditions": "KB-V-1, 20 μM NCO-700 + vinblastine", "method": "1. Drug Accumulation Assays\nwhere the effect of NCO-700 on the uptake of radioactive (^3 H)-vinblastine, an anticancer drug, is measured in cultured cancer cells, that are both drug-resistant and drug-sensitive (Reference 3).\nIn the first two in vitro assays, the drug accumulation assay and the cell survival assay, a human pharyngeal carcinoma cell line (KB-V-1) which is highly resistant to anticancer drugs was used. This cell line was developed by Drs. Ira Pastan and Michael Gottesman of the National Cancer Institute, by step-wise selection in colchicine of drug-resistant cells. The control cancer cell line (KB-3), from which the resistant cell lines were derived, is sensitive to anticancer drugs.\nMeasurement of [^3 H]-vinblastine accumulation was performed by the methods developed in the laboratory of Drs. […] In this method, KB-V-1 and KB-3 cells were plated in 10% fetal bovine serum at a density of 3×10^5 cells per well in 24-well Costar plates. The next day, the growth medium was replaced with Dulbecco's modified Eagle's medium with or without (control cells) 20 μM NCO-700. After ten minutes, the medium was removed and replaced with assay medium (0.5 ml) containing 0.1 μCi, (13 pmol) [^3 H]-vinblastine in the presence or absence of 20 μM NCO-700. After an additional 30 min, the medium was removed, the plates were washed three times in ice-cold phosphate-buffered saline, the cells were detached with trypsin, and radioactivity determined by scintillation counting."}, "breast cancer cell lines": {"system": "breast cancer cell lines", "assay": "Cancer cell death assay (LDH release), breast lines", "type": "cell-based, human", "conditions": "compound alone, 24 hours", "method": "as §1, §2\nAll cell lines used in the present study were obtained from the American Type Tissue Culture Laboratory and cultured according to their specifications. All were human cancer lines unless otherwise noted. The following cell lines and their tissue of origin used in our studies were:\nThe first assays performed measured the anti-neoplastic activity of NCO-700, alone, in cell death assays of a wide variety of human cancer cells. The results of these experiments are shown in FIGS. 1-6, where a dose-response curve of NCO-700 versus % LDH release is plotted, with higher values of LDH released indicating greater anti-neoplastic activity (apoptosis).\nIn FIG. 8, a dose-response curve is shown of the effect of TOP-008 on the killing of breast, prostate and colon cell lines."}}, "note": "Counter-ions that a name gives are not always drawn."}
{"smiles": "CCOC(=O)[C@@H]1O[C@H]1C(=O)N[C@@H](CC(C)C)C(=O)N1CCN(Cc2ccc(OC)c(OC)c2OC)CC1", "note": "[NCO-700, Bis[ethyl (2R,3R)-3-[(S)-3-methyl-1-[4-(2,3,4-trimethoxyphenylmethyl)piperazin-1-ylcarbonyl]butylcarbamoyl]oxirane-2-carboxylate] Sulfate]", "values": [{"measurement": "anti-neoplastic activity (% LDH released)", "setting": "HS-578T (breast) [1]", "result": "fairly good anti-neoplastic activity"}, {"measurement": "effect on tumor size", "setting": "[2]; 10 mg/kg", "result": "no effect"}, {"measurement": "effect on tumor size", "setting": "[2]; 20 mg/kg", "result": "significant anti-neoplastic effect"}, {"measurement": "effect on tumor size", "setting": "[2]; 40 mg/kg", "result": "highly significant"}, {"measurement": "anti-neoplastic activity (cell survival)", "setting": "T-47D (breast)", "result": "significant anti-neoplastic activity"}, {"measurement": "anti-neoplastic activity (cell survival)", "setting": "HS-578T (breast) [3]", "result": "significant anti-neoplastic activity"}, {"measurement": "vinblastine accumulation", "setting": "KB-V-1 (resistant cells)", "result": "1.56 ± 0.03 pmole vinblastine/mg protein"}, {"measurement": "anti-neoplastic activity (LDH release)", "setting": "breast cancer cell lines", "result": "the cells that were responding to NCO-700 were estrogen receptor negative"}]}
